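Method: 48-hour compound exposure of cells in 96-well plates, five concentrations, linear interpolation of endpoints. Abbreviation: GI50, concentration required for 50% inhibition of growth.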 Calls of active or inactive are those of the source. Cut-off read from the data, not from the text of the source: active = GI50 up to about 1.1 µM and inactive = higher.
Experiments:
Test in all cases: NCI-60 cell line screen, 48 h
[1] = tested on: SF-539
[2] = tested on: HOP-62
[3] = tested on: UACC-257
[4] = tested on: IGROV-1
[5] = tested on: OVCAR-8
[6] = tested on: SN12C
[7] = tested on: NCI-H226
[8] = tested on: ACHN
[9] = tested on: U-251
[10] = tested on: EKVX
[11] = tested on: NCI-H23
[12] = tested on: OVCAR-5
[13] = tested on: MDA-MB-231
[14] = tested on: DU-145
[15] = tested on: HCT-116
[16] = tested on: UO-31
[17] = tested on: 786-0
[18] = tested on: RPMI-8226
[19] = tested on: SK-MEL-2
[20] = tested on: A498

Measured: GI50

Cc1nc2ccc(C(F)(F)F)cc2nc1NCc1ccc(Cl)c(Cl)c1
inactive: [1] 17.5 µM | [2] 14.4 µM | [3] 15.9 µM | [4] 16.6 µM | [5] 17.2 µM | [6] 17.2 µM | [7] 18.1 µM | [8] 14.8 µM | [9] 16.5 µM | [10] 14.1 µM | [11] 16 µM | [12] 13.1 µM | [13] 15.8 µM | [14] 17.9 µM | [15] 16.4 µM | [16] 15.9 µM | [17] 16.6 µM | [18] 17.1 µM

C[N+](C)(C)CC1CCC/C1=N/O (centres undefined)
inactive: [1] > 100 µM | [2] > 100 µM | [19] > 100 µM | [3] 43 µM | [20] > 100 µM | [4] > 100 µM | [5] 1.86 µM | [6] > 100 µM | [7] > 100 µM | [8] > 100 µM | [9] 48.4 µM | [10] > 100 µM | [11] > 100 µM | [12] > 100 µM | [15] 21.5 µM | [16] > 100 µM | [17] 22.2 µM | [18] 25.7 µM

CO[C@@]1(c2ccccc2)O[C@H]2OCCC2[C@H]1c1ccc(Cl)cc1 (some centres undefined)
inactive: [1] 51.6 µM | [2] 40.8 µM | [19] 31.8 µM | [3] 22 µM | [20] 25.5 µM | [4] 97.7 µM | [5] 33.7 µM | [6] 51.5 µM | [7] 33.4 µM | [8] 34 µM | [9] 28.2 µM | [10] 24.7 µM | [11] 30.4 µM | [12] 29.1 µM | [15] 27.6 µM | [16] 25.4 µM | [17] 32 µM | [18] 34 µM

CC(C)=C=CC(C)(C)NS(=O)(=O)NC(C)(C)C=C=C(C)C
inactive: [1] > 100 µM | [2] > 100 µM | [19] > 100 µM | [3] > 100 µM | [20] > 100 µM | [4] > 100 µM | [5] > 100 µM | [6] > 100 µM | [7] > 100 µM | [8] > 100 µM | [9] > 100 µM | [10] > 100 µM | [11] > 100 µM | [12] > 100 µM | [14] > 100 µM | [15] > 100 µM | [17] > 100 µM

Cc1cc(N(CCC#N)CCC#N)ccc1/C=C\C(=O)Nc1ccccc1
inactive: [1] 76.7 µM | [2] 57 µM | [19] > 100 µM | [3] > 100 µM | [20] > 100 µM | [4] > 100 µM | [5] > 100 µM | [6] > 100 µM | [7] > 100 µM | [8] 4.43 µM | [9] > 100 µM | [10] > 100 µM | [11] > 100 µM | [12] 30.3 µM | [15] > 100 µM | [16] 33.5 µM | [17] > 100 µM | [18] > 100 µM

COC(=O)C1CC(=O)CCC1c1ccccc1 (centres undefined)
inactive: [1] > 100 µM | [2] > 100 µM | [19] > 100 µM | [3] > 100 µM | [20] > 100 µM | [4] > 100 µM | [5] > 100 µM | [6] > 100 µM | [7] > 100 µM | [8] > 100 µM | [9] > 100 µM | [10] > 100 µM | [11] > 100 µM | [12] > 100 µM | [15] > 100 µM | [16] > 100 µM | [17] > 100 µM | [18] > 100 µM

C/C(CN1C(=O)c2ccccc2C1=O)=N\NS(=O)(=O)c1cccc(C(=O)O)c1
inactive: [1] > 100 µM | [2] > 100 µM | [19] > 100 µM | [3] > 100 µM | [20] > 100 µM | [4] > 100 µM | [5] > 100 µM | [6] > 100 µM | [7] > 100 µM | [8] > 100 µM | [9] > 100 µM | [10] > 100 µM | [11] > 100 µM | [12] > 100 µM | [15] > 100 µM | [16] > 100 µM | [17] > 100 µM | [18] > 100 µM

COC(=O)CCC(=O)c1ccc2c(c1)CC1(Cc3ccccc3C1)C2
inactive: [1] > 100 µM | [2] > 100 µM | [19] 34.7 µM | [3] 24.3 µM | [20] 48.6 µM | [4] > 100 µM | [5] 47.1 µM | [6] 82.6 µM | [7] 24.7 µM | [8] 56.2 µM | [9] 58.7 µM | [10] > 100 µM | [11] 40.1 µM | [12] 53.5 µM | [13] > 100 µM | [15] 28.3 µM | [16] 42.9 µM | [17] 94.6 µM | [18] 31.7 µM

From ChEMBL document CHEMBL1201862, “PubChem BioAssay data set” (2004)
